This test has as its target T1, FGF18 (Homo sapiens, UniProt O76093).
T1 construct: residues 50-194 of the 207-residue precursor (signal peptide 1-27 absent), expressed in Escherichia coli, purified
T1 sequence (O76093 50-194): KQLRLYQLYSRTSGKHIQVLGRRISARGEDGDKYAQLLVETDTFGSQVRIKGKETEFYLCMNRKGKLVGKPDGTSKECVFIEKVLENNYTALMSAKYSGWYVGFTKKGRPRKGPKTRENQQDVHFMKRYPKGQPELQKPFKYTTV
Description: isothermal titration calorimetry. The settings on record: size-defined heparin oligosaccharide, sulfation pattern not stated; error exceeds the value; read-out: affinity. It is filed as binding. (In ITC the heat of successive injections is recorded.)

Turning to heparin oligosaccharides of 6 dp, the Kd worked out at 2200 nM.

(Values after article PMC3996155, “The crystal structure of fibroblast growth factor 18 (FGF18)” (Protein & Cell, 2014).)
